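1) Cells in 96-well plates. 2) Compound, 48 h, 5 concentrations. 3) Linear interpolation between surrounding doses. 4) Unreached endpoint = highest concentration. GI50 is the concentration that inhibits growth by half. The concentration for full growth arrest is given as TGI.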
Experiments:
Assay in all cases: NCI-60 cell line screen, 48 h
[1] = tested on: SW-620 colon
[2] = tested on: T-47D breast
[3] = tested on: KM12 colon
[4] = tested on: SR leukemia
[5] = tested on: UACC-62 melanoma
[6] = tested on: MDA-MB-435
[7] = tested on: 786-0 renal
[8] = tested on: SK-OV-3 ovarian
[9] = tested on: OVCAR-3 ovarian
[10] = tested on: SK-MEL-2 melanoma
[11] = tested on: MDA-MB-468 breast
[12] = tested on: SN12C renal
[13] = tested on: PC-3 prostate
[14] = tested on: MALME-3M melanoma
[15] = tested on: COLO 205 colon
[16] = tested on: UACC-257 melanoma
[17] = tested on: HT29 colon
[18] = tested on: OVCAR-5 ovarian
[19] = tested on: DU-145 prostate
[20] = tested on: HOP-62 NSCLC
[21] = tested on: LOX IMVI melanoma
[22] = tested on: SF-539 CNS
[23] = tested on: BT-549 breast
[24] = tested on: ACHN renal
[25] = tested on: OVCAR-8 ovarian
[26] = tested on: U251 CNS
[27] = tested on: RPMI-8226 leukemia
[28] = tested on: SF-295 CNS
[29] = tested on: NCI-H226 lung
[30] = tested on: NCI/ADR-RES ovarian
[31] = tested on: NCI-H460 lung
[32] = tested on: EKVX NSCLC
[33] = tested on: HCT-116 colon
[34] = tested on: MDA-MB-231 breast
[35] = tested on: MCF7 breast
[36] = tested on: A498 renal
[37] = tested on: HL-60(TB) leukemia
[38] = tested on: TK-10 renal
[39] = tested on: MOLT-4 leukemia
[40] = tested on: HCC-2998 colon
[41] = tested on: A549 NSCLC
[42] = tested on: NCI-H23 lung
[43] = tested on: OVCAR-4 ovarian
[44] = tested on: SK-MEL-28 melanoma
[45] = tested on: CAKI-1 renal
[46] = tested on: UO-31 renal
[47] = tested on: SF-268 CNS
[48] = tested on: K-562 leukemia
[49] = tested on: CCRF-CEM leukemia
[50] = tested on: HOP-92 NSCLC
[51] = tested on: HS 578T breast
[52] = tested on: SK-MEL-5 melanoma
[53] = tested on: M14 melanoma
[54] = tested on: SNB-19 CNS
[55] = tested on: IGROV1 ovarian
[56] = tested on: SNB-75 CNS
[57] = tested on: RXF 393 renal
[58] = tested on: NCI-H522 lung
[59] = tested on: HCT-15 colon

## Cc1ccc(C(=O)CSc2nnc(-c3c[nH]c4ccccc34)n2-c2ccccc2)cc1
[1]
  GI50: 30.3 µM
  TGI: > 100 µM
[2]
  GI50: 24.9 µM
  TGI: > 100 µM
[3]
  GI50: 36.1 µM
  TGI: > 100 µM
[4]
  GI50: 42 µM
  TGI: > 100 µM
[5]
  GI50: 15.3 µM
  TGI: 38.1 µM
[6]
  GI50: 22.8 µM
  TGI: 65.4 µM
[7]
  GI50: 14.7 µM
  TGI: 31.2 µM
[8]
  GI50: 17 µM
  TGI: 33.1 µM
[9]
  GI50: 18 µM
  TGI: 43.3 µM
[10]
  GI50: 30.2 µM
  TGI: > 100 µM
[11]
  GI50: 12.8 µM
  TGI: 32.3 µM
[12]
  GI50: 19.4 µM
  TGI: 48.9 µM
[13]
  GI50: 12.4 µM
  TGI: 37.8 µM
[14]
  GI50: 16.2 µM
  TGI: 36.2 µM
[15]
  GI50: 34.4 µM
  TGI: > 100 µM
[16]
  GI50: 28.9 µM
  TGI: > 100 µM
[17]
  GI50: 15.6 µM
  TGI: 50.5 µM
[18]
  GI50: 19.4 µM
  TGI: 37.2 µM
[19]
  GI50: 44.3 µM
  TGI: > 100 µM
[20]
  GI50: 16.1 µM
  TGI: 35.9 µM
[21]
  GI50: 14.3 µM
  TGI: 27.3 µM
[22]
  GI50: 15 µM
  TGI: 28.5 µM
[23]
  GI50: 25.1 µM
  TGI: 46.7 µM
[24]
  GI50: 13.7 µM
  TGI: 29.2 µM
[25]
  GI50: 24.5 µM
  TGI: > 100 µM
[26]
  GI50: 23.6 µM
  TGI: 65.6 µM
[27]
  GI50: 29.8 µM
  TGI: > 100 µM
[28]
  GI50: 12.6 µM
  TGI: 25.9 µM
[29]
  GI50: 9.22 µM
  TGI: 26.1 µM
[30]
  GI50: 11.9 µM
  TGI: 30.2 µM
[31]
  GI50: 15.2 µM
  TGI: 31 µM
[32]
  GI50: 19 µM
  TGI: 98.9 µM
[33]
  GI50: 18.7 µM
  TGI: 60.4 µM
[34]
  GI50: 15.4 µM
  TGI: 32.6 µM
[35]
  GI50: 15.7 µM
  TGI: 39.2 µM
[36]
  GI50: 22.1 µM
  TGI: 69.4 µM
[37]
  GI50: 30.8 µM
  TGI: > 100 µM
[38]
  GI50: 23.2 µM
  TGI: 44.4 µM
[39]
  GI50: 21.8 µM
  TGI: > 100 µM
[40]
  GI50: 20 µM
  TGI: 51.7 µM
[41]
  GI50: 13.9 µM
  TGI: 48.5 µM
[42]
  GI50: 13.7 µM
  TGI: 27.5 µM
[43]
  GI50: 14.5 µM
  TGI: 41.5 µM
[44]
  GI50: 19.6 µM
  TGI: 52.1 µM
[45]
  GI50: 14.9 µM
  TGI: 29.8 µM
[46]
  GI50: 14.2 µM
  TGI: 31.4 µM
[47]
  GI50: 24.2 µM
  TGI: 78.9 µM
[48]
  GI50: 22.1 µM
  TGI: > 100 µM
[49]
  GI50: 54.4 µM
  TGI: > 100 µM
[50]
  GI50: 14.7 µM
  TGI: 34.7 µM
[51]
  GI50: 14.1 µM
  TGI: 56.3 µM
[52]
  GI50: 16.5 µM
  TGI: 39.1 µM
[53]
  GI50: 32.1 µM
  TGI: > 100 µM
[54]
  GI50: 15.8 µM
  TGI: 34.5 µM
[55]
  GI50: 16.1 µM
  TGI: 31.3 µM
[56]
  GI50: 12.9 µM
  TGI: 29.6 µM
[57]
  GI50: 13.6 µM
  TGI: 28.9 µM
[58]
  GI50: 16.3 µM
  TGI: 43.7 µM
[59]
  GI50: 22.6 µM
  TGI: > 100 µM
